Measurements: patent publication US4289762A, “10-(1,2-Propadienyl) steroids as irreversible aromatase inhibitors” (Merrell Dow Pharmaceuticals Inc., priority 1980, dated 1981)
Values joined by “and” are separate entries in the source; they are usually repeats but may differ in a detail not shown here. Equal entries are not always repeated. “Also recorded” adds a separate entry of the source. Where two headings read alike, the source gives them in different places.

What was measured:
Test in all cases: biochemical
aromatase [1] = molecular target: T1, aromatase (Homo sapiens, UniProt P11511); assay type: human (placenta microsomal fraction); details: for Ki: time-dependent assay, Table 2, read-out: Apparent Ki
T1 construct: microsomal fraction isolated from human placenta; from tissue; host or cells: human placenta, microsomal fraction
T1 sequence (P11511 1-503): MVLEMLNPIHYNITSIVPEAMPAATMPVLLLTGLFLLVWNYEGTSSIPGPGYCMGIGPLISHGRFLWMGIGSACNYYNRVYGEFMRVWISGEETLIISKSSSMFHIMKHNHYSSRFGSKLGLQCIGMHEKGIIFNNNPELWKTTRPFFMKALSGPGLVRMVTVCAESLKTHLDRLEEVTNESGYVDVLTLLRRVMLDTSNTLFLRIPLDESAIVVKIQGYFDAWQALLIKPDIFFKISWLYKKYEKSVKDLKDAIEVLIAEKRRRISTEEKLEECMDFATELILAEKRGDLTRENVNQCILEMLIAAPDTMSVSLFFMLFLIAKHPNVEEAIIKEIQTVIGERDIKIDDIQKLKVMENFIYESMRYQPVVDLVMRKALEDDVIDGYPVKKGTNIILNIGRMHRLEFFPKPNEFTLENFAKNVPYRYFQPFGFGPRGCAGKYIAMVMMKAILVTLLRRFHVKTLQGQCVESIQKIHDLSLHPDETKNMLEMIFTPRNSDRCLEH
Description: (§1) In the time-dependent assay, an amount of the enzyme inhibitor in 100 ul of the assay buffer described above which will provide assay concentrations which are approximately one and ten times the IC50 values are added to 35 ml centrifuge tubes containing 600 ul of the NADPH generating system described above. […] These preparations are mixed using a vortex mixer and incubated for 0, 10, 20 or 40 minutes at 25° C. […] Following vortexing, the enzyme incubation is continued for 10 minutes before being terminated by the addition of chloroform. The amount of radioactivity in the aqueous fraction is determined by scintillation procedures. […] Therefore, the percent enzyme inhibition is expressed as a percentage of the 100 percent enzyme activity value.
Compounds which show time-dependent inhibition are then assayed to establish the inhibition constant, Ki, which is the apparent dissociation constant for the enzyme-inhibitor complex. This determination requires measurements at initial velocities of enzyme reaction. […] The enzyme half-life (t1/2) at these different inhibitor concentrations ([In]) is used to determine the Ki by the linear regression equation of the t1/2 vs. 1/[In]. The Ki is equivalent to the inhibitor concentration when t1/2 is equal to zero.

aromatase [2] = molecular target: T1, aromatase; assay type: human (placenta microsomal fraction); details: for inhibition at 0.25 µM: inhibitor 0.25 uM; for inhibition at 0.25 µM / inhibition at 2.5 µM / inhibition at 0.1 µM / inhibition at 1 µM: read-out: Percent Inhibition; for inhibition at 2.5 µM: inhibitor 2.5 uM; for inhibition at 0.1 µM: inhibitor 0.1 uM; for inhibition at 1 µM: inhibitor 1.0 uM
Description: In this assay, the inhibitor is preincubated with the enzyme prior to assaying for enzyme activity in the presence of high substrate levels.
as §1

aromatase [3] = molecular target: T1, aromatase; assay type: biochemical, human (placenta microsomal fraction)
Description: Assay buffer contains 100 mM KCl, 10 mM KH2 PO4, 10 mM dithiothreitol and 1 mM EDTA at pH 8.0. […] These preparations are mixed using a vortex mixer and incubated for 30 minutes at 37° C. with a 95% O2 :5% CO2 gas phase in a Dubinoff shaking incubator.
The enzymatic reaction is terminated by the addition of 10 ml of CHCl3. After vortexing for 20 sec., aqueous/organic emulsions are dispersed and phase separation achieved following centrifugation at 600×g for 10 min. Duplicate 500 ul samples of the upper aqueous phase of each incubation sample are added to 10×75 mm culture tubes. To these tubes, 500 ul of cold 0.25% dextran-coated charcoal suspension is added, vortexed, incubated for 15 min. at 4° C., then centrifuged at 2600×g in a refrigerated centrifuge (4° C.). The supernatant fraction is decanted into a 20 ml scintillation vial and 15 ml of aqueous scintillation cocktail is added. The radioactivity of ^3 H2 O resulting from liberated 1 and 2 tritium atoms during the enzymatic reaction is determined by counting for 10 min. in a liquid scintillation counter. This assay procedure is adapted from the procedures of Reed et al, J. Biol. Chem., 251, 1625 (1976), and Thompson et al, J. Biol. Chem., 249, 5364 and 5374 (1974).

C[C@]12C=CC(=O)C=C1CC[C@@H]1[C@@H]2CC[C@]2(C)OC(=O)CC[C@@H]12 [1-dehydrotestololactone, 1,2,3,4,4a,4b,7,9,10,10a-Decahydra-2-hydroxy-2,4b-dimethyl-7oxo-l-phenanthrene-propionic acid O-lactone]
Ki (aromatase [1]): 7900 nM | inhibition at 0.25 µM (aromatase [2]; preincubation 0 minutes): 0% | inhibition at 0.25 µM (aromatase [2]; preincubation 20 minutes): 3.6% | inhibition at 0.25 µM (aromatase [2]; preincubation 40 minutes): 36.1% | inhibition at 2.5 µM (aromatase [2]; preincubation 0 minutes): 24.7% | inhibition at 2.5 µM (aromatase [2]; preincubation 20 minutes): 82.7% | inhibition at 2.5 µM (aromatase [2]; preincubation 40 minutes): 96.9% | IC50 (aromatase [3]): 2500 nM

C[C@]12C=CC(=O)C=C1C=C[C@@H]1[C@@H]2CC[C@]2(C)C(=O)CC[C@@H]12 [Androsta-1,4,6-triene-3,17-dione]
Ki (aromatase [1]): 110 nM | inhibition at 0.1 µM (aromatase [2]; preincubation 0 minutes): 20.5% | inhibition at 0.1 µM (aromatase [2]; preincubation 20 minutes): 45.5% | inhibition at 0.1 µM (aromatase [2]; preincubation 40 minutes): 54.8% | inhibition at 1 µM (aromatase [2]; preincubation 0 minutes): 88.8% | inhibition at 1 µM (aromatase [2]; preincubation 20 minutes): 92.8% | inhibition at 1 µM (aromatase [2]; preincubation 40 minutes): 95.2% | IC50 (aromatase [3]): 100 nM

C=C=C[C@]12CCC(=O)C=C1CC[C@@H]1[C@@H]2CC[C@]2(C)C(=O)CC[C@@H]12 [10-(1,2-propadienyl)estr-4-ene-3,17-dione]
Affinity for the enzyme site relative to natural substrate testosterone (times greater) (aromatase [1]): three times greater | Binding to the enzyme (aromatase [1]): irreversibly bound to the enzyme | Factor by which enzyme affinity exceeds that of 1-dehydrotestololactone (aromatase [1]): 58.1 | Factor by which enzyme affinity exceeds that of aminoglutethimide (aromatase [1]): 1,491.2 | Factor by which enzyme affinity exceeds that of androsta-1,4,6-triene-3,17-dione (aromatase [1]): 8.1 | Activity compared with known therapeutic agents / known aromatase inhibitors (aromatase [2]): superior activity to known therapeutic agents; also recorded: superior to known aromatase inhibitors | Time-dependent inhibition of aromatase (aromatase [2]): significant time-dependent inhibition of aromatase | Percent Inhibition (aromatase [2]; 1 µM): 50.2 and 69.2 and 84.0 | Enzyme affinity compared with other known inhibitors (aromatase [3]): greater enzyme affinity than other known inhibitors
